Patent US11053204B2, “Pyrimidinyloxy benzene derivatives as herbicides” (FMC Corporation, priority 2015, dated 2021)

Columns and labels:
Format in all cases: in vivo
[1] = system: blackgrass (Alopecurus myosuroides); assay: Test A postemergence, visual injury rating; details: 0 is no effect, 100 is complete control; for Blackgrass plant response rating: 0 to 100 scale, approximately 10 days
Text: (§1) Seeds of plant species selected from barnyardgrass (Echinochloa crus-galli), kochia (Kochia scoparia), ragweed (common ragweed, Ambrosia elatior), Italian ryegrass (Lolium multiflorum), large (Lg) crabgrass (Digitaria sanguinalis), giant foxtail (Setaria faberii), morningglory (Ipomoea spp.), pigweed (Amaranthus retroflexus), velvetleaf (Abutilon theophrasti), wheat (Triticum aestivum), and corn (Zea mays) were planted into a blend of loam soil and sand and treated preemergence with a directed soil spray using test chemicals formulated in a non-phytotoxic solvent mixture which included a surfactant.
(§2) At the same time, plants selected from these crop and weed species and also blackgrass (Alopecurus myosuroides), and galium (catchweed bedstraw, Galium aparine) were planted in pots containing the same blend of loam soil and sand and treated with postemergence applications of test chemicals formulated in the same manner. Plants ranged in height from 2 to 10 cm and were in the one- to two-leaf stage for the postemergence treatment. Treated plants and untreated controls were maintained in a greenhouse for approximately 10 days, after which time all treated plants were compared to untreated controls and visually evaluated for injury. Plant response ratings, summarized in Table A, are based on a 0 to 100 scale where 0 is no effect and 100 is complete control. A dash (-) response means no test result.

[2] = system: wheat (Triticum aestivum); assay: Test A postemergence, visual injury rating; details: 0 is no effect, 100 is complete control; for Wheat plant response rating: 0 to 100 scale, approximately 10 days
Text: as §1, §2

kochia (Kochia scoparia) [3] = assay: Test A postemergence, visual injury rating; details: 0 is no effect, 100 is complete control; for Kochia plant response rating: 31 g ai/ha, 0 to 100 scale, approximately 10 days; for Kochia plant response rating (0 to 100 scale): 125 g ai/ha
Text: as §1, §2

[4] = system: barnyardgrass (Echinochloa crus-galli); assay: Test A postemergence, visual injury rating; details: 0 is no effect, 100 is complete control; for Barnyardgrass plant response rating: 0 to 100 scale, approximately 10 days
Text: as §1, §2

[5] = system: ragweed (common ragweed, Ambrosia elatior); assay: Test A postemergence, visual injury rating; details: 0 is no effect, 100 is complete control; for Ragweed plant response rating: 0 to 100 scale, approximately 10 days
Text: as §1, §2

[6] = system: pigweed (Amaranthus retroflexus); assay: Test A postemergence, visual injury rating; details: 0 is no effect, 100 is complete control; for Pigweed plant response rating: 0 to 100 scale, approximately 10 days
Text: as §1, §2

[7] = system: galium (catchweed bedstraw, Galium aparine); assay: Test A postemergence, visual injury rating; details: 0 is no effect, 100 is complete control; for Galium plant response rating: 0 to 100 scale, approximately 10 days
Text: as §1, §2

corn (Zea mays) = assay: Test A postemergence, visual injury rating; details: 0 is no effect, 100 is complete control; for Corn plant response rating: 0 to 100 scale, approximately 10 days
Text: as §1, §2

[8] = system: Italian ryegrass (Lolium multiflorum); assay: Test A postemergence, visual injury rating; details: 0 is no effect, 100 is complete control; for Ryegrass, Italian plant response rating: 0 to 100 scale, approximately 10 days
Text: as §1, §2

[9] = system: giant foxtail (Setaria faberii); assay: Test A postemergence, visual injury rating; details: 0 is no effect, 100 is complete control; for Foxtail, Giant plant response rating: 0 to 100 scale, approximately 10 days
Text: as §1, §2

[10] = system: sedge, umbrella (small-flower umbrella sedge, Cyperus difformis); assay: Test B flooded paddy test, plant response rating; details: 250 g ai/ha; Flood; scale of 0 to 100 where 0 is no effect and 100 is complete control; 13 to 15 days
Text: (§3) At time of treatment, test pots were flooded to 3 cm above the soil surface, treated by application of test compounds directly to the paddy water, and then maintained at that water depth for the duration of the test. Treated plants and controls were maintained in a greenhouse for 13 to 15 days, after which time all species were compared to controls and visually evaluated. […] A dash (-) response means no test result.

[11] = system: barnyardgrass (Echinochloa crus-galli); assay: Test B flooded paddy test, plant response rating; details: 250 g ai/ha; Flood; scale of 0 to 100 where 0 is no effect and 100 is complete control; 13 to 15 days
Text: as §3

rice (Oryza sativa) = assay: Test B flooded paddy test, plant response rating; details: 250 g ai/ha; Flood; scale of 0 to 100 where 0 is no effect and 100 is complete control; 13 to 15 days
Text: as §3

[12] = system: ducksalad (Heteranthera limosa); assay: Test B flooded paddy test, plant response rating; details: 250 g ai/ha; Flood; scale of 0 to 100 where 0 is no effect and 100 is complete control; 13 to 15 days
Text: as §3

kochia (Kochia scoparia) [13] = assay: Test A preemergence, visual injury rating
Summary of the method: (§4)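 Pre- and postemergence greenhouse screen. Soil: loam + sand. Spray carrier: solvent mixture, non-phytotoxic, with surfactant. Post timing at 1–2 leaves, height 2–10 cm. Readout: visual injury on a 0–100 scale roughly 10 days after application, untreated plants as reference.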

[14] = system: barnyardgrass (Echinochloa crus-galli); assay: Test A preemergence, visual injury rating; details: for Plant response rating, Barnyardgrass: 31 g ai/ha, 0 to 100 scale, 0 no effect, 100 complete control; for Barnyardgrass plant response rating: 0 to 100 scale (0 no effect, 100 complete control)
Summary of the method: as §4

[15] = system: ragweed (common ragweed, Ambrosia elatior); assay: Test A preemergence, visual injury rating
Summary of the method: as §4

[16] = system: pigweed (Amaranthus retroflexus); assay: Test A preemergence, visual injury rating
Summary of the method: as §4

[17] = system: Italian ryegrass (Lolium multiflorum); assay: Test A preemergence, visual injury rating
Summary of the method: as §4

[18] = system: giant foxtail (Setaria faberii); assay: Test A preemergence, visual injury rating
Summary of the method: as §4

[19] = 31 g ai/ha, 0 to 100 scale, 0 no effect, 100 complete control
[20] = 125 g ai/ha, 0 to 100 scale (0 no effect, 100 complete control)
[21] = 500 g ai/ha, 0 to 100 scale (0 no effect, 100 complete control)

Structure (SMILES): CC(C)COC(=O)c1c(Br)cccc1Oc1ncc(Cl)cn1 [Compound 1]
- Blackgrass plant response rating ([1]; 31 g ai/ha): 0
- Blackgrass plant response rating (0 to 100 scale) ([1]; 125 g ai/ha): 20
- Wheat plant response rating ([2]; 31 g ai/ha): 0
- Wheat plant response rating (0 to 100 scale) ([2]; 125 g ai/ha): 0
- Kochia plant response rating (kochia (Kochia scoparia) [3]): 20
- Kochia plant response rating (0 to 100 scale) (kochia (Kochia scoparia) [3]): 30
- Barnyardgrass plant response rating ([4]; 31 g ai/ha): 20
- Barnyardgrass plant response rating (0 to 100 scale) ([4]; 125 g ai/ha): 30
- Ragweed plant response rating ([5]; 31 g ai/ha): 0
- Ragweed plant response rating (0 to 100 scale) ([5]; 125 g ai/ha): 10
- Pigweed plant response rating ([6]; 31 g ai/ha): 40
- Pigweed plant response rating (0 to 100 scale) ([6]; 125 g ai/ha): 70
- Galium plant response rating ([7]; 31 g ai/ha): 50
- Galium plant response rating (0 to 100 scale) ([7]; 125 g ai/ha): 70
- Corn plant response rating (corn (Zea mays); 31 g ai/ha): 0
- Corn plant response rating (0 to 100 scale) (corn (Zea mays); 125 g ai/ha): 20
- Ryegrass, Italian plant response rating ([8]; 31 g ai/ha): 0
- Ryegrass, Italian plant response rating (0 to 100 scale) ([8]; 125 g ai/ha): 0
- Foxtail, Giant plant response rating ([9]; 31 g ai/ha): 30
- Foxtail, Giant plant response rating (0 to 100 scale) ([9]; 125 g ai/ha): 60
- Plant response rating, Sedge, Umbrella [10]: 80
- Plant response rating, Barnyardgrass [11]: 0
- Plant response rating, Rice (rice (Oryza sativa)): 0
- Plant response rating, Ducksalad [12]: 20
- Plant response rating, Kochia (kochia (Kochia scoparia) [13]; [19]): 0
- Kochia plant response rating (kochia (Kochia scoparia) [13]; [20]): 40
- Plant response rating, Barnyardgrass [14]: 20
- Barnyardgrass plant response rating ([14]; 125 g ai/ha): 30
- Plant response rating, Ragweed [15, 19]: 0
- Ragweed plant response rating [15, 20]: 0
- Plant response rating, Pigweed [16, 19]: 20
- Pigweed plant response rating [16, 20]: 70
- Plant response rating, Ryegrass, Italian [17, 19]: 0
- Ryegrass, Italian plant response rating [17, 20]: 0
- Plant response rating, Foxtail, Giant [18, 19]: 30
- Foxtail, Giant plant response rating [18, 20]: 70

Structure (SMILES): C=C(Cl)COC(=O)c1c(Br)cccc1Oc1ncc(Cl)cn1 [Compound 2]
- Blackgrass plant response rating ([1]; 31 g ai/ha): 0
- Blackgrass plant response rating (0 to 100 scale) ([1]; 125 g ai/ha): 30
- Wheat plant response rating ([2]; 31 g ai/ha): 0
- Wheat plant response rating (0 to 100 scale) ([2]; 125 g ai/ha): 0
- Kochia plant response rating (kochia (Kochia scoparia) [3]): 50
- Kochia plant response rating (0 to 100 scale) (kochia (Kochia scoparia) [3]): 90
- Barnyardgrass plant response rating ([4]; 31 g ai/ha): 30
- Barnyardgrass plant response rating (0 to 100 scale) ([4]; 125 g ai/ha): 40
- Ragweed plant response rating ([5]; 31 g ai/ha): 0
- Ragweed plant response rating (0 to 100 scale) ([5]; 125 g ai/ha): 0
- Pigweed plant response rating ([6]; 31 g ai/ha): 60
- Pigweed plant response rating (0 to 100 scale) ([6]; 125 g ai/ha): 80
- Galium plant response rating ([7]; 31 g ai/ha): 60
- Galium plant response rating (0 to 100 scale) ([7]; 125 g ai/ha): 90
- Corn plant response rating (corn (Zea mays); 31 g ai/ha): 10
- Corn plant response rating (0 to 100 scale) (corn (Zea mays); 125 g ai/ha): 20
- Ryegrass, Italian plant response rating ([8]; 31 g ai/ha): 0
- Ryegrass, Italian plant response rating (0 to 100 scale) ([8]; 125 g ai/ha): 20
- Foxtail, Giant plant response rating ([9]; 31 g ai/ha): 30
- Foxtail, Giant plant response rating (0 to 100 scale) ([9]; 125 g ai/ha): 60
- Plant response rating, Sedge, Umbrella [10]: 100
- Plant response rating, Barnyardgrass [11]: 0
- Plant response rating, Rice (rice (Oryza sativa)): 0
- Plant response rating, Ducksalad [12]: 30
- Plant response rating, Kochia (kochia (Kochia scoparia) [13]; [19]): 30
- Kochia plant response rating (kochia (Kochia scoparia) [13]; [20]): 70
- Plant response rating, Barnyardgrass [14]: 10
- Barnyardgrass plant response rating ([14]; 125 g ai/ha): 50
- Plant response rating, Ragweed [15, 19]: 0
- Ragweed plant response rating [15, 20]: 0
- Plant response rating, Pigweed [16, 19]: 40
- Pigweed plant response rating [16, 20]: 90
- Plant response rating, Ryegrass, Italian [17, 19]: 0
- Ryegrass, Italian plant response rating [17, 20]: 10
- Plant response rating, Foxtail, Giant [18, 19]: 70
- Foxtail, Giant plant response rating [18, 20]: 100

Structure (SMILES): CCOCc1c(Br)cccc1Oc1ncc(Cl)cn1 [Compound 106]
- Blackgrass plant response rating ([1]; 125 g ai/ha): 0
- Blackgrass plant response rating (0 to 100 scale) ([1]; 500 g ai/ha): 20
- Wheat plant response rating ([2]; 125 g ai/ha): 0
- Wheat plant response rating (0 to 100 scale) ([2]; 500 g ai/ha): 0
- Barnyardgrass plant response rating ([4]; 125 g ai/ha): 40
- Barnyardgrass plant response rating (0 to 100 scale) ([4]; 500 g ai/ha): 100
- Ragweed plant response rating ([5]; 125 g ai/ha): 0
- Ragweed plant response rating (0 to 100 scale) ([5]; 500 g ai/ha): 0
- Pigweed plant response rating ([6]; 125 g ai/ha): 10
- Pigweed plant response rating (0 to 100 scale) ([6]; 500 g ai/ha): 20
- Galium plant response rating ([7]; 125 g ai/ha): 0
- Galium plant response rating (0 to 100 scale) ([7]; 500 g ai/ha): 10
- Corn plant response rating (corn (Zea mays); 125 g ai/ha): 0
- Corn plant response rating (0 to 100 scale) (corn (Zea mays); 500 g ai/ha): 10
- Ryegrass, Italian plant response rating ([8]; 125 g ai/ha): 0
- Ryegrass, Italian plant response rating (0 to 100 scale) ([8]; 500 g ai/ha): 0
- Foxtail, Giant plant response rating ([9]; 125 g ai/ha): 10
- Foxtail, Giant plant response rating (0 to 100 scale) ([9]; 500 g ai/ha): 70
- Plant response rating, Sedge, Umbrella [10]: 0
- Plant response rating, Barnyardgrass [11]: 0
- Plant response rating, Rice (rice (Oryza sativa)): 0
- Plant response rating, Ducksalad [12]: 0
- Plant response rating, Kochia (kochia (Kochia scoparia) [13]; [20]): 30
- Kochia plant response rating (kochia (Kochia scoparia) [13]; [21]): 90
- Barnyardgrass plant response rating ([14]; 125 g ai/ha): 0
- Barnyardgrass plant response rating ([14]; 500 g ai/ha): 100
- Plant response rating, Ragweed [15, 20]: 0
- Ragweed plant response rating [15, 21]: 0
- Plant response rating, Pigweed [16, 20]: 30
- Pigweed plant response rating [16, 21]: 70
- Plant response rating, Ryegrass, Italian [17, 20]: 0
- Ryegrass, Italian plant response rating [17, 21]: 10
- Plant response rating, Foxtail, Giant [18, 20]: 80
- Foxtail, Giant plant response rating [18, 21]: 100
